In US7229979B2, “Hypoestoxides, derivatives and agonists thereof for use as stent-coating agents” (Immune Modulation, Inc., priority 2003, dated 2007):

System: platelets (arachidonic acid-induced platelet aggregation)
Assay: Arachidonic acid-induced platelet aggregation in platelet-rich plasma
Assay type: cell-based, New Zealand rabbit
Conditions: 30 μM; arachidonic acid 100 μM; rabbit platelet-rich plasma
Method: The inhibitory effect of hypoestoxides according to the present invention on platelet aggregation was studied. Platelet-rich plasma from a New Zealand rabbit was used as the source of platelets. Arachidonic acid (100 μM) was used to induce maximal platelet aggregation in vitro. Optical density of aggregation was measured by densitometry.

## C=C1C(=O)C[C@H]2C[C@@H]3O[C@@]3(C)CC[C@@H]3O[C@@]3(C)C[C@@H](OC(C)=O)[C@H]1C2(C)C [Hypoestoxide, hypoestoxide]
  % Inhibition of arachidonic acid-induced platelet aggregation: 100%
